Patent US8338472B2, “Hexahydrocyclopentyl[F]indazole carboxamides and derivatives thereof as selective glucocorticoid receptor modulators” (Merck Sharp & Dohme Corp., priority 2008, dated 2012)
Where two headings read alike, the source gives them in different places.

Key:
Glucocorticoid Receptor = target: T1, Glucocorticoid Receptor (Homo sapiens, UniProt P04150); experiment: Trans-Activation Modulation of Glucocorticoid Receptor (GRAMMER), MMTV-LUC reporter gene in A549 cells; assay type: cell-based; settings: for Emax: A549, A549 cells, Emax relative to 300 nM dexamethasone, read-out: Transactivation A549 Cells GRAMMER Emax; for EC50: inflection point, A549 cells, read-out: Transactivation A549 Cells GRAMMER IP
T1 construct: These cells express large amount of the GR and are very responsive to GC treatment; endogenous in cells; host or cells: A549 cells transiently transfected with the MMTV-LUC reporter
T1 sequence (P04150 1-777): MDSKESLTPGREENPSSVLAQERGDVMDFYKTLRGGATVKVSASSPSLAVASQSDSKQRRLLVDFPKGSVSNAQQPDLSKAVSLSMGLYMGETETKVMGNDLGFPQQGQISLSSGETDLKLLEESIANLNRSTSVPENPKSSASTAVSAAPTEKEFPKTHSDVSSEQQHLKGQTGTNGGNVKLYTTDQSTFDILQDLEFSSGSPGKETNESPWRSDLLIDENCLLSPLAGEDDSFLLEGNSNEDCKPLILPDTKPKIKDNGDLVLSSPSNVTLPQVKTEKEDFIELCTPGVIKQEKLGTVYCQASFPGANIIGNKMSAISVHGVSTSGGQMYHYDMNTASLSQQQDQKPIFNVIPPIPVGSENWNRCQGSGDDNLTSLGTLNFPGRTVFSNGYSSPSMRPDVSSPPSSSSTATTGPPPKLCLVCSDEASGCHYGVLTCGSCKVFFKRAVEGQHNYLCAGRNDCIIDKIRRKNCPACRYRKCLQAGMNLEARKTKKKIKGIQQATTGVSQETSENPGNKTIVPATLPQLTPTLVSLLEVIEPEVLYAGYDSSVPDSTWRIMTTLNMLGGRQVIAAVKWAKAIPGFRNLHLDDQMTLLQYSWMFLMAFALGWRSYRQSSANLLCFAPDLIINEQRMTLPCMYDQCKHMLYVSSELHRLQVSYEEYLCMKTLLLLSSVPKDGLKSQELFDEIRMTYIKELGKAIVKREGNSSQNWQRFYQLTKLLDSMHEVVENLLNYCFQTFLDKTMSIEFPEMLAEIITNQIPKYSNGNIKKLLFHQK
In short: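 Luciferase from a transiently transfected MMTV-LUC reporter was measured after 24 h compound exposure (≤1% DMSO) in A549 or MDA-MB-453 cells. For antagonism, the decrease of 10 nM dexamethasone-induced signal was calculated. For agonism, Emax was referenced to 300 nM dexamethasone.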

human GR = target: T2, human GR (Homo sapiens, UniProt P04150); experiment: Transrepression Assay (GITAR), TNFα-β-lactamase reporter gene in U937 cells; assay type: cell-based; settings: for EC50: inflection point, U937 cells, read-out: Transrepression U937 Cells GITAR IP
T2 construct: U937 cells contain an endogenous glucocorticoid receptor (GR); endogenous in cells; host or cells: U937 cells stably transfected with the TNF-alpha promoter/beta-lactamase reporter
T2 sequence (P04150 1-777): T1 sequence (P04150 1-777)
In short: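 Repression of PMA (5 ng/ml final)/LPS (100 ng/ml final)-induced TNF-α promoter activity, read as β-lactamase cleavage of CCF2-AM, in stably transfected U937 cells expressing native GR. Compound added 30-45 min before stimulation, overnight (~18 hr) 37° C; normalized to 100 nM dexamethasone (100%).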

[1] = target: T3, glucocorticoid receptor (GR) (Homo sapiens, UniProt P04150); experiment: Ligand binding assay (GR BIND), 3H-dexamethasone displacement in MDA-MB-453 cell lysate; settings: GR BIND Ki
T3 sequence (P04150 1-777): T1 sequence (P04150 1-777)

[2] = GITAR Emax minus GRAMMER Emax, Table 1
[3] = U-937, U937 cells, activity repressed by 100 nM dexamethasone = 100%, Table 1, read-out: Transrepression U937 Cells GITAR Emax
[4] = U-937, text statement, 100 nM dexamethasone = 100%, read-out: maximal activity in the transrepression assay (GITAR)
[5] = compounds in the art (WO03/086294)

Row | Emax (Glucocorticoid Receptor; Table 1) | EC50 (Glucocorticoid Receptor; Table 1) | GITAR Greater than by GRAMMER % SEP (human GR; [2]) | Emax (human GR; [3]) | Emax (human GR; [4]) | EC50 (human GR; Table 1) | Ki ([1]; Table 1) | Emax (Glucocorticoid Receptor; compounds in the art) | EC50 (Glucocorticoid Receptor; [5]) | GITAR > GRAMM % SEP (human GR; GITAR Emax minus GRAMMER Emax, compounds in the art) | Emax (human GR; U-937, U937 cells, activity repressed by 100 nM dexamethasone = 100%, compounds in the art, read-out: Transrepression U937 Cells GITAR Emax) | EC50 (human GR; [5]) | Ki [1, 5] | SMILES
1 | 66.4% | 108 nM | 20.4% | 86.8% | > 5% | 141 nM | 5.1 nM |  |  |  |  |  |  | CCCCN(CC(C)O)C(=O)[C@H]1CCC2=Cc3c(cnn3-c3ccc(F)cc3)C[C@@]21C (stereo partly drawn) [Compound 40, (4αR,5S)-N-butyl-1-(4-fluorophenyl)-N-(2-hydroxypropyl)-4α-methyl-1,4,4α,5,6,7-hexahydrocyclopenta[f]indazole-5-carboxamide]
2 | 13.4% | 1400 nM | 4.8% | 18.2% | > 5% | 586 nM | 1.3 nM |  |  |  |  |  |  | C[C@]12Cc3cnn(-c4ccc(F)cc4)c3C=C1CC[C@@H]2C(=O)N(Cc1ccc(Cl)cc1Cl)CC1CC1 [Compound 7, (4αR,5S)-N-(cyclopropylmethyl)-N-(2,4-dichlorobenzyl)-1-(4-fluorophenyl)-4α-methyl-1,4,4α,5,6,7-hexahydrocyclopenta[f]indazole-5-carboxamide]
3 | 14.2% | 399 nM | 31.1% | 45.3% | > 5% | 818 nM | 3.5 nM |  |  |  |  |  |  | Cc1ccc(CCN(CC(O)CC(F)(F)F)C(=O)[C@H]2CCC3=Cc4c(cnn4-c4ccc(F)cc4)C[C@@]32C)cc1 (stereo partly drawn) [Compound 85, (4αR,5S)-1-(4-fluorophenyl)-4α-methyl-N-[2-(4-methylphenyl)ethyl]-N-(4,4,4-trifluoro-2-hydroxybutyl)-1,4,4α,5,6,7-hexahydrocyclopenta[f]indazole-5-carboxamide]
4 | 9.4% | 526 nM | 2.3% | 11.8% | > 5% | 1830 nM | 43.6 nM |  |  |  |  |  |  | CC1CN(C(=O)[C@H]2CCC3=Cc4c(cnn4-c4ccc(F)cc4)C[C@@]32C)CC(C)O1 (stereo partly drawn) [Compound 17, (4αR,5S)-5-[(2,6-dimethylmorpholin-4-yl)carbonyl]-1-(4-fluorophenyl)-4α-methyl-1,4,4α,5,6,7-hexahydrocyclopenta[f]indazole]
5 | 5.7% | 2550 nM | 31.3% | 37% | > 5% | 3420 nM | 168 nM |  |  |  |  |  |  | CCCN(CCO)C(=O)[C@H]1CCC2=Cc3c(cnn3-c3ccc(F)cc3)C[C@@]21C [Compound 37, (4αR,5S)-1-(4-fluorophenyl)-N-(2-hydroxyethyl)-4α-methyl-N-propyl-1,4,4α,5,6,7-hexahydrocyclopenta[f]indazole-5-carboxamide]
6 | 82.4% | 55.6 nM | 14.0% | 96.5% | > 5% | 41.2 nM | 1 nM |  |  |  |  |  |  | CCCN(CC(O)C(F)(F)F)C(=O)[C@H]1CCC2=Cc3c(cnn3-c3ccc(F)cc3)C[C@@]21C (stereo partly drawn) [Compound 61, (4αR,5S)-1-(4-fluorophenyl)-4α-methyl-N-propyl-N-(3,3,3-trifluoro-2-hydroxypropyl)-1,4,4α,5,6,7-hexahydrocyclopenta[f]indazole-5-carboxamide]
7 | 62.5% | 231 nM | 24.5% | 86.9% | > 5% | 276 nM | 10.7 nM |  |  |  |  |  |  | CN(CC(O)C(F)(F)F)C(=O)[C@H]1CCC2=Cc3c(cnn3-c3ccc(F)cc3)C[C@@]21C (stereo partly drawn) [Compound 70, (4αR,5S)-1-(4-fluorophenyl)-N,4α-dimethyl-N-(3,3,3-trifluoro-2-hydroxypropyl)-1,4,4α,5,6,7-hexahydrocyclopenta[f]indazole-5-carboxamide]
8 | 18% | 602 nM | 23.5% | 41.5% | > 5% | 688 nM | 6.9 nM |  |  |  |  |  |  | CCCN(CC1CCCO1)C(=O)[C@H]1CCC2=Cc3c(cnn3-c3ccc(F)cc3)C[C@@]21C (stereo partly drawn) [Compound 62, (4αR,5S)-1-(4-fluorophenyl)-4α-methyl-N-propyl-N-(tetrahydrofuran-2-ylmethyl)-1,4,4α,5,6,7-hexahydrocyclopenta[f]indazole-5-carboxamide]
9 | 67% | 725 nM | 9.9% | 76.9% | > 5% | 558 nM | 5.1 nM |  |  |  |  |  |  | CC(C)CN(C[C@@H](C)O)C(=O)[C@H]1CCC2=Cc3c(cnn3-c3ccc(F)cc3)C[C@@]21C [Compound 67, (4αR,5S)-1-(4-fluorophenyl)-N-[(2R)-2-hydroxypropyl]-N-isobutyl-4α-methyl-1,4,4α,5,6,7-hexahydrocyclopenta[f]indazole-5-carboxamide]
10 | 44.1% | 430 nM | 24.0% | 68.1% | > 5% | 595 nM | 2.5 nM |  |  |  |  |  |  | CCCCN(CCC)C(=O)[C@H]1CCC2=Cc3c(cnn3-c3ccc(F)cc3)C[C@@]21C [Compound 56, (4αR,5S)-N-butyl-1-{4-fluorophenyl)-4α-methyl-N-propyl-1,4,4α,5,6,7-hexahydrocyclopenta[f]indazole-5-carboxamide]
11 | 75.2% | 117 nM | 1.5% | 76.7% | > 5% | 91.5 nM | 3.9 nM |  |  |  |  |  |  | C[C@]12Cc3cnn(-c4ccc(F)cc4)c3C=C1CC[C@@H]2C(=O)N(Cc1ccccc1F)CC(O)C(F)(F)F (stereo partly drawn) [Compound 59, (4αR,5S)-N-(2-fluorobenzyl)-1-(4-fluorophenyl)-4α-methyl-N-(3,3,3-trifluoro-2-hydroxypropyl)-1,4,4α,5,6,7-hexahydrocyclopenta[f]indazole-5-carboxamide]
12 | 2.2% | 2140 nM | 17.1% | 19.3% | > 5% | 158 nM | 8.7 nM |  |  |  |  |  |  | COCCN(Cc1ccc(OC)cc1)C(=O)[C@H]1CCC2=Cc3c(cnn3-c3ccc(F)cc3)C[C@@]21C [Compound 45, (4αR,5S)-1-(4-fluorophenyl)-N-(4-methoxybenzyl)-N-(2-methoxyethyl)-4α-methyl-1,4,4α,5,6,7-hexahydrocyclopenta[f]indazole-5-carboxamide]
13 | 1.6% | 5000 nM | 22.3% | 23.9% | > 5% | 3950 nM | 53.5 nM |  |  |  |  |  |  | CCN(CC)C(=O)[C@H]1CCC2=Cc3c(cnn3-c3ccc(F)cc3)C[C@@]21C [Compound 55, (4αR,5S)-N,N-diethyl-1-(4-fluorophenyl)-4α-methyl-1,4,4α,5,6,7-hexahydrocyclopenta[f]indazole-5-carboxamide]
14 |  |  |  |  |  |  |  | 103% | 502 nM | -59.6% | 43.8% | 4280 nM | 21.1 nM | C[C@]12Cc3cnn(-c4ccc(F)cc4)c3C=C1CC[C@@H]2C(=O)NCc1ccccc1 [reference compound]
